This passage reports C50 results from ChEMBL document CHEMBL1132252, “Nonapeptide analogues containing (R)-3-hydroxybutanoate and beta-homoalanine oligomers: synthesis and binding affinity to a class I major histocompatibility complex protein” (1999).

Non-standard residues stand in square brackets, D forms with d. Residues, ends and D or L forms follow the SMILES beside them. *: point of attachment. X1 = C[C@H](CC(=O)N[C@@H](CCCCN)C(=O)O)OC(=O)C[C@H](C)NC(=O)C[C@@H](C)O*; β3hA = C[C@H](N)CC(=O)O

The experiment concerns RMA-S. Put plainly: The compound was tested for binding affinity against murine RMA-S cells transfected with B*2705 by FMC analysis. The format is functional, Mus musculus.
`C[C@H](CC(=O)N[C@H](C)CC(=O)N[C@@H](CCCCN)C(=O)O)NC(=O)C[C@@H](C)NC(=O)C[C@@H](C)NC(=O)[C@H](C)NC(=O)[C@H](CCCN=C(N)N)NC(=O)CN.O=C(O)C(F)(F)F.O=C(O)C(F)(F)F.O=C(O)C(F)(F)F`: the C50 was 2.8 µM.

Regarding `C[C@H](CC(=O)N[C@@H](CCCCN)C(=O)O)NC(=O)C[C@H](C)NC(=O)C[C@@H](C)NC(=O)C[C@H](C)NC(=O)[C@H](C)NC(=O)[C@H](CCCN=C(N)N)NC(=O)CN.O=C(O)C(F)(F)F.O=C(O)C(F)(F)F.O=C(O)C(F)(F)F`, the C50 turned out to be 4.8 µM.

`C[C@H](NC(=O)[C@H](CCCN=C(N)N)NC(=O)CN)C(=O)N[C@@H](C)CC(=O)N[C@@H](C)CC(=O)N[C@@H](C)CC(=O)N[C@@H](C)CC(=O)N[C@@H](CCCCN)C(=O)O` showed a C50 of 6 µM.

`C[C@H](CC(=O)N[C@@H](C)CC(=O)N[C@@H](C)CC(=O)N[C@@H](CCCCN)C(=O)O)NC(=O)C[C@@H](C)NC(=O)[C@H](C)NC(=O)[C@H](CCCN=C(N)N)NC(=O)CN` returned a C50 of 30 µM.

`C[C@H](CC(=O)N[C@@H](C)CC(=O)N[C@@H](C)CC(=O)N[C@@H](CCCCN)C(=O)O)OC(=O)C[C@@H](C)OC(=O)[C@H](C)NC(=O)[C@H](CCCN=C(N)N)NC(=O)CN` came in with a C50 of 17 µM.

As for `C[C@H](CC(=O)N[C@@H](CCCCN)C(=O)O)OC(=O)C[C@H](C)NC(=O)C[C@@H](C)OC(=O)C[C@H](C)NC(=O)[C@H](C)NC(=O)[C@H](CCCN=C(N)N)NC(=O)CN` (H-GRA[β3hA]-X1), the C50 came to 2.8 µM.

In the case of H-GRAFVTIGK-OH, the C50 amounted to 2.8 µM.
